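Growth conditions: 96-well plates. Treatment: test compound, 48 hours, 5 concentrations. Analysis: linear interpolation between bracketing concentrations; unreached endpoints set to highest concentration. Abbreviation: GI50, concentration required for 50% inhibition of growth.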 The source made the active and inactive calls. Rule as the data show it: active = GI50 up to about 1.1 µM and inactive = higher. Starred links: 1 amine or outer side, 2 acyl side, 3 side chain; linkers in the order of their positions; H or OH if unused. Positions of bridges follow the written chain, without caps; N, C: chain ends. Non-standard residues stand in square brackets, D forms with d. Residues, ends and D or L forms follow the SMILES beside them. ξ: configuration not given here. X37 = CC[C@H](C)[C@@H](N[*:1])[C@@H](O)CC(=O)O[C@H](C(=O)[C@H](C)C(=O)[*:2])C(C)C; NMeY = CN[C@@H](Cc1ccc(O)cc1)C(=O)O; dNMeL = CN[C@H](CC(C)C)C(=O)O; ξΔPro = O=C(O)C1C=CCN1
Key:
Assay in all cases: inhibition of tumour cell growth, NCI panel, 48 h
CCRF-CEM = tested on: CCRF-CEM
HCT-116 = tested on: HCT-116
HCT-15 = tested on: HCT-15
HOP-92 = tested on: HOP-92
K562 = tested on: K562
LOX IMVI = tested on: LOX IMVI
MDA-MB-435 = tested on: MDA-MB-435
NCI-H23 = tested on: NCI-H23
NCI/ADR-RES = tested on: NCI/ADR-RES
OVCAR-5 = tested on: OVCAR-5
PC-3 = tested on: PC-3
SF-295 = tested on: SF-295
SK-MEL-2 = tested on: SK-MEL-2
SNB-19 = tested on: SNB-19
SR = tested on: SR
UACC-257 = tested on: UACC-257
EKVX = tested on: EKVX
Malme-3M = tested on: Malme-3M
RXF 393 = tested on: RXF 393
SF-539 = tested on: SF-539

| Structure (SMILES) | GI50 (CCRF-CEM) | GI50 (HCT-116) | GI50 (HCT-15) | GI50 (HOP-92) | GI50 (K562) | GI50 (LOX IMVI) | GI50 (MDA-MB-435) | GI50 (NCI-H23) | GI50 (NCI/ADR-RES) | GI50 (OVCAR-5) | GI50 (PC-3) | GI50 (SF-295) | GI50 (SK-MEL-2) | GI50 (SNB-19) | GI50 (SR) | GI50 (UACC-257) | GI50 (EKVX) | GI50 (Malme-3M) | GI50 (RXF 393) | GI50 (SF-539) |
| --- | --- | --- | --- | --- | --- | --- | --- | --- | --- | --- | --- | --- | --- | --- | --- | --- | --- | --- | --- | --- |
| COC(C/C(=C/CO[Si](C(C)C)(C(C)C)C(C)C)C(=O)N(C(=O)OC(C)(C)C)c1ccccc1I)OC | > 10 µM (inactive) | 11.8 µM (inactive) | 33.4 µM | 2.16 µM (inactive) | > 100 µM (inactive) | 18.2 µM (inactive) | 32.5 µM (inactive) | 39.7 µM (inactive) | > 100 µM (inactive) | 36.1 µM (inactive) | 23.6 µM (inactive) | 10.7 µM (inactive) | 17.8 µM (inactive) | 56.4 µM (inactive) | 34.4 µM (inactive) | 38.8 µM (inactive) |  |  |  |  |
| CC1(C)OC2COC(c3n[nH]c4c(=O)[nH]c(=O)[nH]c34)C2O1 (stereo unspecified) |  | > 100 µM (inactive) | > 100 µM | 74 µM (inactive) | > 100 µM (inactive) | > 100 µM (inactive) | > 100 µM (inactive) | > 100 µM (inactive) | > 100 µM (inactive) | > 100 µM (inactive) | > 100 µM (inactive) | > 100 µM (inactive) | > 100 µM (inactive) | > 100 µM (inactive) | > 100 µM (inactive) | > 100 µM (inactive) | > 100 µM (inactive) | > 100 µM (inactive) | > 100 µM (inactive) | > 100 µM (inactive) |
| O=C1CSC(/C=C/c2ccccc2)N1c1ccc(-c2ccc(-n3c(-c4ccccc4)nc4ccccc4c3=O)cc2)cc1 (stereo unspecified) | 20.3 µM (inactive) |  | 20.7 µM | 18 µM (inactive) | 25.9 µM (inactive) | 15.8 µM (inactive) | 19.4 µM (inactive) | 35.6 µM (inactive) | 21.1 µM (inactive) | 6.04 µM (inactive) | 22.2 µM (inactive) | 20.1 µM (inactive) | 19.1 µM (inactive) | 21.8 µM (inactive) | 28.3 µM (inactive) | 30.3 µM (inactive) | 15.5 µM (inactive) | 23.1 µM (inactive) |  |  |
| COc1ccc(CNc2nc3cc(C(F)(F)F)ccc3nc2C(=O)O)cc1OC | 18.4 µM (inactive) | 29 µM (inactive) | 29.4 µM | 27.2 µM (inactive) | 24.4 µM (inactive) | 33.7 µM (inactive) | 26.7 µM (inactive) | 33.4 µM (inactive) | 34 µM (inactive) | 46 µM (inactive) | 27.5 µM (inactive) | 34 µM (inactive) | 23.2 µM (inactive) | 29.6 µM (inactive) | 23.9 µM (inactive) | 34.2 µM (inactive) | 31.8 µM (inactive) |  |  | 32.5 µM (inactive) |
| Cc1nc2[nH]ccn2c(=O)c1CCO | > 10 µM (inactive) | > 10 µM (inactive) | > 10 µM | > 10 µM (inactive) | > 10 µM (inactive) | > 10 µM (inactive) | > 10 µM (inactive) | > 10 µM (inactive) | > 10 µM (inactive) | > 10 µM (inactive) | > 10 µM (inactive) | > 10 µM (inactive) |  | > 10 µM (inactive) | > 10 µM (inactive) | > 10 µM (inactive) | > 10 µM (inactive) | > 10 µM (inactive) | > 10 µM (inactive) | > 10 µM (inactive) |
| Cc1nn(-c2ccccc2)c2c1CC(=O)Nc1ccccc1-2 | 0.44 µM (active) | 0.409 µM (active) | 0.618 µM | 4.18 µM (inactive) | 0.412 µM (active) | 0.507 µM (active) | 0.204 µM (active) | 1.6 µM (inactive) | 0.413 µM (active) | 4.82 µM (inactive) | 0.679 µM (active) | 0.318 µM (active) | 1.65 µM (inactive) | 2.55 µM (inactive) | 0.269 µM (active) | 0.555 µM (active) | 9.66 µM (inactive) |  | 0.313 µM (active) | 0.607 µM (active) |
| C/C(=N/NC(=S)N1CCCCC1)c1cccc(/C(C)=N\NC(=S)N2CCCCC2)n1 | 3 µM (inactive) | 1.74 µM (inactive) | 1.66 µM |  | 2.28 µM (inactive) | 2.07 µM (inactive) | 1.92 µM (inactive) | 3.93 µM (inactive) | 2.06 µM (inactive) | 0.423 µM (active) | 1.65 µM (inactive) | 1.95 µM (inactive) | 2.1 µM (inactive) | 2.47 µM (inactive) | 2.07 µM (inactive) | 2.85 µM (inactive) | 2.13 µM (inactive) | 2.29 µM (inactive) | 2.26 µM (inactive) | 1.92 µM (inactive) |
| O=C(Cn1ccc(=O)[nH]c1=O)Nc1ccc(C(=O)O)c(O)c1 | > 100 µM (inactive) | > 100 µM (inactive) | > 100 µM | > 100 µM (inactive) | > 100 µM (inactive) | > 100 µM (inactive) | > 100 µM (inactive) | > 100 µM (inactive) | > 100 µM (inactive) | > 100 µM (inactive) | > 100 µM (inactive) | 18.2 µM (inactive) | > 100 µM (inactive) | > 100 µM (inactive) | > 100 µM (inactive) | > 100 µM (inactive) | > 100 µM (inactive) | > 100 µM (inactive) | > 100 µM (inactive) |  |
| CC[C@H](C)[C@H]1NC(=O)[C@@H](NC(=O)[C@@H](CC(C)C)N(C)C(=O)C2C=CCN2)[C@@H](C)OC(=O)[C@H](Cc2ccc(OC)cc2)N(C)C(=O)[C@@H]2CCCN2C(=O)[C@H](CC(C)C)NC(=O)[C@@H](C)C(=O)[C@H](C(C)C)OC(=O)C[C@@H]1O (stereo partly specified) (H-[ξΔPro][dNMeL]T[X37]LP[NMeY](Me); ester 3-C) | < 0.005 µM (active) | < 0.005 µM (active) | 0.0162 µM | < 0.005 µM (active) | < 0.005 µM (active) | < 0.005 µM (active) | < 0.005 µM (active) | < 0.005 µM (active) | 0.0617 µM (active) | < 0.005 µM (active) | < 0.005 µM (active) | < 0.005 µM (active) | < 0.005 µM (active) | < 0.005 µM (active) | < 0.005 µM (active) | < 0.005 µM (active) | < 0.005 µM (active) | < 0.005 µM (active) | < 0.005 µM (active) |  |
| O=[N+]([O-])/C=C/c1cn(CCCCCCCCCCCCn2cc(/C=C/[N+](=O)[O-])c3ccccc32)c2ccccc12 | > 100 µM (inactive) | > 100 µM (inactive) | > 100 µM | > 100 µM (inactive) |  | > 100 µM (inactive) | > 100 µM (inactive) | > 100 µM (inactive) | > 100 µM (inactive) | > 100 µM (inactive) | > 100 µM (inactive) |  | > 100 µM (inactive) |  | > 100 µM (inactive) | > 100 µM (inactive) | > 100 µM (inactive) | > 100 µM (inactive) |  | > 100 µM (inactive) |
| Cc1c(CCOC=O)c(=O)[nH]c2nncn12 | > 100 µM (inactive) | > 100 µM (inactive) | > 100 µM | > 100 µM (inactive) | > 100 µM (inactive) | > 100 µM (inactive) | > 100 µM (inactive) | > 100 µM (inactive) | > 100 µM (inactive) | > 100 µM (inactive) | > 100 µM (inactive) | > 100 µM (inactive) |  | > 100 µM (inactive) | > 100 µM (inactive) | > 100 µM (inactive) | > 100 µM (inactive) | > 100 µM (inactive) | > 100 µM (inactive) | > 100 µM (inactive) |
| CCC1=NC(N/N=C/c2ccco2)=N/C1=C\c1ccco1 | > 100 µM (inactive) | > 100 µM (inactive) | > 100 µM | > 100 µM (inactive) | 62.1 µM (inactive) | > 100 µM (inactive) | 52 µM (inactive) | > 100 µM (inactive) | > 100 µM (inactive) | > 100 µM (inactive) | > 100 µM (inactive) | > 100 µM (inactive) | > 100 µM (inactive) | > 100 µM (inactive) | > 100 µM (inactive) | > 100 µM (inactive) | > 100 µM (inactive) | > 100 µM (inactive) | > 100 µM (inactive) |  |
| NC(CSCc1ccccc1)C(=O)O (stereo unspecified) | > 100 µM (inactive) | > 100 µM (inactive) | > 100 µM | > 100 µM (inactive) | > 100 µM (inactive) | > 100 µM (inactive) | > 100 µM (inactive) | > 100 µM (inactive) | > 100 µM (inactive) | > 100 µM (inactive) | > 100 µM (inactive) | > 100 µM (inactive) | > 100 µM (inactive) | > 100 µM (inactive) | > 100 µM (inactive) | > 100 µM (inactive) | > 100 µM (inactive) | > 100 µM (inactive) | > 100 µM (inactive) |  |
| S=C(c1c[nH]c2ccccc12)N1CCN(Cc2ccccc2)CC1 | 27.2 µM (inactive) | 15.7 µM (inactive) | 13.6 µM |  | 27.1 µM (inactive) | 15.7 µM (inactive) | 15.5 µM (inactive) | 19.3 µM (inactive) | 17 µM (inactive) | 16.2 µM (inactive) | 15.7 µM (inactive) | 14.8 µM (inactive) | 18.9 µM (inactive) | 14.9 µM (inactive) | 20.2 µM (inactive) | 20.7 µM (inactive) | 18 µM (inactive) | 19.5 µM (inactive) | 16.1 µM (inactive) | 18.6 µM (inactive) |
| CSc1ncc2c(n1)-c1ccccc1OC2NC1CC1 (stereo unspecified) | 31.4 µM (inactive) | 64.1 µM (inactive) | 40.4 µM | 43.9 µM (inactive) | 54 µM (inactive) | 92 µM (inactive) | > 100 µM (inactive) | 73.6 µM (inactive) | 48.1 µM (inactive) | > 100 µM (inactive) | 50.7 µM (inactive) | > 100 µM (inactive) | > 100 µM (inactive) | > 100 µM (inactive) | > 100 µM (inactive) | > 100 µM (inactive) | 51.2 µM (inactive) |  | > 100 µM (inactive) | > 100 µM (inactive) |

— ChEMBL document CHEMBL1201862, “PubChem BioAssay data set” (2004)
